Assay results as given in patent US7718808B2, “Thiazole derivatives” (Kyowa Hakko Kirin Co., Ltd., priority 2003, dated 2010).

| SMILES | melting point |
| --- | --- |
| Cn1nnc2ccc(C(=O)Nc3nc(-c4ccco4)c(C(=O)c4ccccn4)s3)cc21 [Compound 245, N-[4-(2-Furyl)-5-(pyridin-2-ylcarbonyl)thiazol-2-yl]-1-methyl-1H-benzotriazole-6-carboxamide] | 230 to 231 °C |
| CC(O)c1cc2cc(C(=O)Nc3nc(-c4ccco4)c(C(=O)c4ccccn4)s3)ccc2o1 (stereo not drawn) [Compound 246, N-[4-(2-Furyl)-5-(pyridin-2-ylcarbonyl)thiazol-2-yl]-2-(1-hydroxyethyl)-1-benzofuran-5-carboxamide] | 246 to 249 °C |
| CC(C)(O)c1cc2cc(C(=O)Nc3nc(-c4ccco4)c(C(=O)c4ccccn4)s3)ccc2o1 [Compound 247, N-[4-(2-Furyl)-5-(pyridin-2-ylcarbonyl)thiazol-2-yl]-2-(1-hydroxy-1-methylethyl)-1-benzofuran-5-carboxamide] | 230 to 231 °C |
| O=C(Nc1nc(-c2ccco2)c(C(=O)c2ccccn2)s1)c1cnc2occc2c1 [Compound 248, N-[4-(2-Furyl)-5-(pyridin-2-ylcarbonyl)thiazol-2-yl]furo[2,3-b]pyridine-5-carboxamide] | 234 to 235 °C |
| CCOC(=O)Nc1nc(-c2ccco2)c(C(=O)c2ccccn2)s1 [Compound 250, Ethyl N-[4-(2-furyl)-5-(pyridin-2-ylcarbonyl)thiazol-2-yl]carbamate] | 158 to 159 °C |
| O=C(Nc1nc(-c2ccco2)c(C(=O)c2ccccn2)s1)OC1CCC1 [Compound 251, Cyclobutyl N-[4-(2-furyl)-5-(pyridin-2-ylcarbonyl)thiazol-2-yl]carbamate] | 152 to 153 °C |
| O=C(Nc1nc(-c2ccco2)c(C(=O)c2ccccn2)s1)OC1CCCC1 [Compound 252, Cyclopentyl N-[4-(2-furyl)-5-(pyridin-2-ylcarbonyl)thiazol-2-yl]carbamate] | 162 to 163 °C |
| O=C(Nc1nc(-c2ccco2)c(C(=O)c2ccccn2)s1)OC1CCOCC1 [Compound 253, 4-Tetrahydropyranyl N-[4-(2-furyl)-5-(pyridin-2-ylcarbonyl)thiazol-2-yl]carbamate] | 144 to 145 °C |
| O=C(Nc1nc(-c2ccco2)c(C(=O)c2ccccn2)s1)OC(CF)CF [Compound 255, 2-Fluoro-1-(fluoromethyl)ethyl N-[4-(2-furyl)-5-(pyridin-2-ylcarbonyl)thiazol-2-yl]carbamate] | 158 to 159 °C |
| CC(C)NC(=O)Nc1nc(-c2ccco2)c(C(=O)c2ccccn2)s1 [Compound 258, N-[4-(2-Furyl)-5-(pyridin-2-ylcarbonyl)thiazol-2-yl]-N′-isopropylurea] | 182 to 186 °C |
| COCCNC(=O)Nc1nc(-c2ccco2)c(C(=O)c2ccccn2)s1 [Compound 260, N-[4-(2-Furyl)-5-(pyridin-2-ylcarbonyl)thiazol-2-yl]-N′-(2-methoxyethyl)urea] | 150 to 151 °C |
| COCCCNC(=O)Nc1nc(-c2ccco2)c(C(=O)c2ccccn2)s1 [Compound 261, N-[4-(2-Furyl)-5-(pyridin-2-ylcarbonyl)thiazol-2-yl]-N′-(3-methoxypropyl)urea] | 169 to 170 °C |
| COc1cccc(C(=O)c2sc(NC(=O)c3ccncc3)nc2-c2ccco2)n1 [Compound 283, N-[4-(2-Furyl)-5-(6-methoxypyridin-2-ylcarbonyl)thiazol-2-yl]pyridine-4-carboxamide] | 247 to 250 °C |
| Cc1cccc(C(=O)c2sc(NC(=O)c3ccncc3)nc2-c2ccco2)n1 [Compound 284, N-[4-(2-Furyl)-5-(6-methylpyridin-2-ylcarbonyl)thiazol-2-yl]pyridine-4-carboxamide] | 238 to 241 °C |
| Cc1ccc(C(=O)c2sc(NC(=O)c3ccncc3)nc2-c2ccco2)nc1 [Compound 294, N-[4-(2-Furyl)-5-(5-methylpyridin-2-ylcarbonyl)thiazol-2-yl]pyridine-4-carboxamide] | 255 to 257 °C |
| Cc1ccnc(C(=O)c2sc(NC(=O)c3ccncc3)nc2-c2ccco2)c1 [Compound 295, N-[4-(2-Furyl)-5-(4-methylpyridin-2-ylcarbonyl)thiazol-2-yl]pyridine-4-carboxamide] | 240 to 245 °C |
| O=C(Nc1nc(-c2ccco2)c(C(=O)c2cccnc2)s1)c1ccncc1 [Compound 304, N-[4-(2-Furyl)-5-(pyridin-3-ylcarbonyl)thiazol-2-yl]pyridine-4-carboxamide] | 245 to 248 °C |
| O=C(c1cccnc1)c1sc(NC(=O)C2CC2)nc1-c1ccco1 [Compound 305, N-[4-(2-Furyl)-5-(pyridin-3-ylcarbonyl)thiazol-2-yl]cyclopropanecarboxamide] | 231 to 233 °C |
| N#Cc1ccc(C(=O)Nc2nc(-c3ccco3)c(C(=O)c3cccnc3)s2)cc1 [Compound 306, 4-Cyano-N-[4-(2-furyl)-5-(pyridin-3-ylcarbonyl)thiazol-2-yl]benzamide] | 288 to 290 °C |

Results, then the molecule that gave them:

| melting point | SMILES |
| --- | --- |
| 222 to 225 °C | CN1CCC(OC(=O)Nc2nc(-c3ccco3)c(C(=O)c3ccccn3)s2)CC1 [Compound 254, 1-Methylpiperidin-4-yl N-[4-(2-furyl)-5-(pyridin-2-ylcarbonyl)thiazol-2-yl]carbamate] |
| 144 to 145 °C | O=C(c1ccccn1)c1sc(NC(=O)N2CCOCC2)nc1-c1ccco1 [Compound 256, N-[4-(2-Furyl)-5-(pyridin-2-ylcarbonyl)thiazol-2-yl]morpholine-4-carboxamide] |
| 182 to 185 °C | O=C(c1ccccn1)c1sc(NC(=O)N2CCCCC2)nc1-c1ccco1 [Compound 257, N-[4-(2-Furyl)-5-(pyridin-2-ylcarbonyl)thiazol-2-yl]piperidine-1-carboxamide] |
| 184 to 185 °C | O=C(CCl)Nc1nc(-c2ccco2)c(C(=O)c2ccccn2)s1 [Compound 262, 2-Chloro-N-[4-(2-furyl)-5-(pyridin-2-ylcarbonyl)thiazol-2-yl]acetamide] |
| 170 to 171 °C | O=C(CN1CCOCC1)Nc1nc(-c2ccco2)c(C(=O)c2ccccn2)s1 [Compound 264, N-[4-(2-Furyl)-5-(pyridin-2-ylcarbonyl)thiazol-2-yl]morpholinoacetamide] |
| 188 to 191 °C | C[C@@H]1CN(CC(=O)Nc2nc(-c3ccco3)c(C(=O)c3ccccn3)s2)C[C@H](C)O1 [Compound 265, 2-(cis-2,6-Dimethylmorpholino)-N-[4-(2-furyl)-5-(pyridin-2-ylcarbonyl)thiazol-2-yl]acetamide] |
| 104 to 106 °C | CC1CCN(CC(=O)Nc2nc(-c3ccco3)c(C(=O)c3ccccn3)s2)CC1 [Compound 266, N-[4-(2-Furyl)-5-(pyridin-2-ylcarbonyl)thiazol-2-yl]-2-(4-methylpiperidino)acetamide] |
| 188 to 204 °C | O=C(CN1CCC2(CC1)OCCO2)Nc1nc(-c2ccco2)c(C(=O)c2ccccn2)s1 [Compound 269, 2-(1,4-Dioxa-8-azaspiro[4.5]decan-8-yl)-N-[4-(2-furyl)-5-(pyridin-2-ylcarbonyl)thiazol-2-yl]acetamide] |
| 214 to 220 °C (dec.) | O=C(CN1CCC(N2CCCCC2)CC1)Nc1nc(-c2ccco2)c(C(=O)c2ccccn2)s1 [Compound 270, N-[4-(2-Furyl)-5-(pyridin-2-ylcarbonyl)thiazol-2-yl]-2-(4-piperidinopiperidino)acetamide] |
| 149 to 150 °C | O=C(CN1CCC(N2CCOCC2)CC1)Nc1nc(-c2ccco2)c(C(=O)c2ccccn2)s1 [Compound 271, N-[4-(2-Furyl)-5-(pyridin-2-ylcarbonyl)thiazol-2-yl]-2-(4-morpholinopiperidino)acetamide] |
| 136 to 145 °C | CN1CCN(CC(=O)Nc2nc(-c3ccco3)c(C(=O)c3ccccn3)s2)CC1 [Compound 272, N-[4-(2-Furyl)-5-(pyridin-2-ylcarbonyl)thiazol-2-yl]-2-(4-methylpiperazin-1-yl)acetamide] |
| 142 to 144 °C | CCN1CCN(CC(=O)Nc2nc(-c3ccco3)c(C(=O)c3ccccn3)s2)CC1 [Compound 273, 2-(4-Ethylpiperazin-1-yl)-N-[4-(2-furyl)-5-(pyridin-2-ylcarbonyl)thiazol-2-yl]acetamide] |
| 154 to 155 °C | CC(C)N1CCN(CC(=O)Nc2nc(-c3ccco3)c(C(=O)c3ccccn3)s2)CC1 [Compound 274, N-[4-(2-Furyl)-5-(pyridin-2-ylcarbonyl)thiazol-2-yl]-2-(4-isopropylpiperazin-1-yl)acetamide] |
| 170 to 171 °C | CC(=O)N1CCN(CC(=O)Nc2nc(-c3ccco3)c(C(=O)c3ccccn3)s2)CC1 [Compound 275, 2-(4-Acetylpiperazin-1-yl)-N-[4-(2-furyl)-5-(pyridin-2-ylcarbonyl)thiazol-2-yl]acetamide] |
| 203 to 204 °C | O=C(CN1CCN(c2ccccc2)CC1)Nc1nc(-c2ccco2)c(C(=O)c2ccccn2)s1 [Compound 276, N-[4-(2-Furyl)-5-(pyridin-2-ylcarbonyl)thiazol-2-yl]-2-(4-phenylpiperazin-1-yl)acetamide] |
| 215 to 218 °C | O=C(CN1CCN(c2ccccn2)CC1)Nc1nc(-c2ccco2)c(C(=O)c2ccccn2)s1 [Compound 277, N-[4-(2-Furyl)-5-(pyridin-2-ylcarbonyl)thiazol-2-yl]-2-[4-(2-pyridyl)piperazin-1-yl]acetamide] |
| 199 to 200 °C | O=C(CN1CCN(c2ncccn2)CC1)Nc1nc(-c2ccco2)c(C(=O)c2ccccn2)s1 [Compound 278, N-[4-(2-Furyl)-5-(pyridin-2-ylcarbonyl)thiazol-2-yl]-2-[4-(2-pyrimidinyl)piperazin-1-yl]acetamide] |
| 172 to 188 °C | O=C(CN1CCN(C2CCOCC2)CC1)Nc1nc(-c2ccco2)c(C(=O)c2ccccn2)s1 [Compound 279, N-[4-(2-Furyl)-5-(pyridin-2-ylcarbonyl)thiazol-2-yl]-2-[4-(tetrahydropyran-4-yl)piperazin-1-yl]acetamide] |
| 153 to 155 °C | O=C(CN1CCSC1)Nc1nc(-c2ccco2)c(C(=O)c2ccccn2)s1 [Compound 281, N-[4-(2-Furyl)-5-(pyridin-2-ylcarbonyl)thiazol-2-yl]-2-(1,3-thiazolidin-3-yl)acetamide] |
| 148 to 149 °C | O=C(CN1CCSCC1)Nc1nc(-c2ccco2)c(C(=O)c2ccccn2)s1 [Compound 282, N-[4-(2-Furyl)-5-(pyridin-2-ylcarbonyl)thiazol-2-yl]-2-thiomorpholinoacetamide] |
